Source: paper PMC7460390, “Secondary Metabolites with Nitric Oxide Inhibition from Marine-Derived Fungus Alternaria sp. 5102” (Marine Drugs, 2020)
Read-outs that look alike come from different tables or passages of the source.

How the values were obtained:
[1] = test system: NO production in RAW264.7 cells activated by lipopolysaccharide; assay: Inhibition of NO production in LPS-activated RAW264.7 cells (Griess assay); assay type: cell-based, murine; conditions: for SI, selectivity index, calculated by CC50/IC50: CC50 (MTT) / IC50 (NO production); for IC50: read-out: IC50, inhibition of LPS-induced NO production
Experimental: After pre-incubation of RAW 264.7 cells (1.5 × 10^5 cells/mL) with LPS (1 µg/mL) and samples at 37 °C for 24 h, the quantity of nitrite accumulated in the culture medium was measured as an indicator of NO production. Briefly, 50 µL of cell culture medium were mixed with 100 µL Griess reagent, and incubated at room temperature for 10 min. The absorbance was determined at 540 nm wavelength with a microplate reader (Multiskan GO, Thermo Scientific, Waltham, MA, USA).

[2] = Cell viability, MTT assay, with LPS treatment; assay type: cell-based, murine; conditions: mouse, RAW 264.7 cells, MTT, LPS 1 µg/mL, 24 h, mean ± SD, n = 3
Experimental: (§1) In this work, all isolated compounds (1–22) were evaluated for their inhibition of nitric oxide (NO) production in RAW264.7 cells activated by lipopolysaccharide (LPS) using the Griess assay with indomethacin as a positive control (Table 3). […] To investigate whether the inhibitory activities of the active compounds were due to their cytotoxicity, the effects of the tested compounds on cell proliferation/viability were evaluated using the MTT method. […] Therefore, further studies are required to clarify the underlying mechanism of the active compounds.
(§2) Cell viability was measured using the conventional MTT assay. RAW 264.7 cells were seeded in 96-well plates at a density of 1.5 × 10^5 cells/mL. After 12 h, the cells were treated with LPS (1 µg/mL) and samples, followed by additional incubation for 24 h at 37 °C. MTT stock solution (2 mg/mL) was added to wells for a total reaction volume of 110 µL. After 4 h incubation, the supernatants were aspirated. The formazan crystals in each well were dissolved in 50 µL of DMSO, and the absorbance was measured using a microplate reader (Multiskan GO, Thermo Scientific, Waltham, MA, USA) at the wavelength of 490 nm. Relative cell viability was evaluated based on the quantity of MTT converted to the insoluble formazan salt. The optical density of formazan generated in the control cells represented 100% viability. The data were expressed as mean percentages of the viable cells compared to the respective control.

[3] = test system: RAW 264.7 cells; assay: Cell viability, MTT assay, with LPS treatment; assay type: cell-based, murine; conditions: up to 100 μM, with LPS treatment for 24 h
Experimental: as §1, §2

[4] = test system: RTX-induced mouse ear edema; parameters: method as in PMID 10840958; conditions: 50 µg per ear, topical; cited from earlier work
[5] = test system: spontaneous synchronous Ca^2+ oscillations; parameters: method as in PMID 32237750; conditions: cited from earlier work
[6] = test system: indoleamine 2,3-dioxygenase 1 (IDO1); parameters: method as in doi:10.1039/C9QO00775J; conditions: cited from earlier work
[7] = test system: C. albicans; parameters: method as in PMID 22377027; conditions: against C. albicans; cited from earlier work
[8] = test system: iNOS and COX-2 proteins and mRNA expressions in RAW 264.7 macrophages; parameters: method as in not given; conditions: ref not given; cited from earlier work
[9] = test system: NO production in lipopolysaccharide activated RAW264.7 cells; parameters: method as in PMID 29197643; conditions: LPS-activated RAW264.7 cells, in vitro; read-out: IC50, inhibition of NO production; cited from earlier work
[10] = Mus musculus, RAW264.7, 24 h, RAW 264.7 cells, LPS 1 µg/mL, 24 h, Griess assay, mean ± SD, n = 3
[11] = RAW 264.7 cells activated with LPS
[12] = RAW 264.7 cells, LPS 1 µg/mL, 24 h, Griess assay, mean ± SD, n = 3

Compound	SI, selectivity index, calculated by CC50/IC50 ([1]; RAW 264.7 cells)	IC50 [1, 10] [µM]	CC50 at 24 h [2, 11] [µM]	other results
COc1cc(O)c2c(c1)C1(OC2=O)C(C)=CC(=O)C1O (racemic) [Compound 10, ±talaroflavone]	1.1	23.9 ± 3.3	27.2 ± 1.6	–
CC(O)C(C)OC(=O)CC1OC(=O)c2c(O)cccc21 (centres unmarked) [Compound 1, alternabenzofuran A]	–	> 50	> 100	–
C[C@H](O)[C@@H](C)OC(=O)C[C@@H]1OC(=O)c2c(O)cccc21 [Compound 2, alternabenzofuran B]	–	18.7 ± 2.35	> 100	Cytotoxicity (cell proliferation/viability, MTT) [3]: did not show any significant cytotoxicity
CC1=CC(=O)C2(C)CCCC(C)(CO)C23CC13 (centres unmarked) [Compound 3, alternaterpenoid A]	10.4	–	24.9 ± 1.2	–
CC1(C)CCCC2(C)C(=O)C=C(CO)C3CC312 (centres unmarked) [Compound 4, alternaterpenoid B]	–	~50	> 100	–
COC(=O)C[C@@H]1OC(=O)c2c(O)cccc21 [Compound 5, isobenzofuranone A]	–	41.1 ± 4.78	> 100	–
COc1cc(O)c2c(c1)C1=C(O)C(=O)C[C@@]1(C)OC2=O [Compound 7, (R)-1,6-dihydroxy-8-methoxy-3a-methyl-3,3a-dihydrocyclopenta[c]isochromene-2,5-dione]	4.0	< 10	20.6 ± 2.3	IC50 [1, 12]: 5.2 ± 1.96 µM
COc1cc(O)c2c(=O)oc3c(c2c1)[C@@H](C)CC3=O [Compound 8, dihydroaltenuenes A]	–	> 50	> 100	–
COc1cc(O)c2c(=O)oc3c(c2c1)[C@@H](C)C[C@@H]3O [Compound 9, phialophriol]	–	–	> 100	Cytotoxicity (cell proliferation/viability, MTT) [3]: did not show any significant cytotoxicity
COc1cc(O)c2c(=O)oc3cc(O)cc(C)c3c2c1 [Compound 11, alternariol-9-O-methyl ether]	–	–	–	IC50 ([1]; Mus musculus, RAW264.7, 24 h): 39 ± 1.92 µM; Cytotoxicity (cell proliferation/viability, MTT) [3]: did not show any significant cytotoxicity; CC50 at 24 h [2]: > 100 µM
Cc1cc(O)cc2oc(=O)c3c(O)cc(O)cc3c12 [Compound 12, alternariol]	3.0	–	–	IC50 ([1]; Mus musculus, RAW264.7, 24 h): 16.6 ± 1.6 µM; CC50 at 24 h [2]: 50.4 ± 2.1 µM
COc1cc(O)c2c(=O)oc3cc(O)c(C)cc3c2c1 [Compound 13, 2-methyl-9-methoxy alternariol]	2.0	–	–	IC50 ([1]; Mus musculus, RAW264.7, 24 h): 24.5 ± 4.51 µM; CC50 at 24 h [2]: 48.2 ± 2.6 µM
COc1cc(O)c2c(=O)oc3c(O)c(O)cc(C)c3c2c1 [Compound 14, 3’-hydroxyalternariol 5-O-methyl ether]	–	< 10	–	IC50 [1, 12]: 5.9 ± 0.48 µM; Cytotoxicity (cell proliferation/viability, MTT) [3]: did not show any significant cytotoxicity; CC50 [2]: > 100 µM
COc1cc(O)c2c(=O)oc3cc(CO)cc(O)c3c2c1 [Compound 15, alternariol-1’-hydroxy-9-methyl ether]	1.9	–	–	IC50 ([1]; Mus musculus, RAW264.7, 24 h): 26.3 ± 3.99 µM; CC50 at 24 h [2]: 48.7 ± 1.8 µM
COc1cc(O)c2c(c1)C1=CC(=O)C(O)=CC1(C)OC2=O (centres unmarked) [Compound 16, dehydroaltenusin]	–	1.3 to 41.1	–	–
COc1cc(O)c2c(c1)-c1cc(O)c(O)cc1COC2=O [Compound 17, alteryulactone]	–	–	–	IC50 ([1]; Mus musculus, RAW264.7, 24 h): 16.2 ± 2.62 µM; Cytotoxicity (cell proliferation/viability, MTT) [3]: did not show any significant cytotoxicity; CC50 at 24 h [2]: > 100 µM
COC(=O)C1Cc2cccc(O)c2C(=O)O1 (centres unmarked) [Compound 18, tenuissimasatin]	1.2	24.5 ± 1.06	28.3 ± 2.5	–
COc1cc(O)c(C(=O)O)c(-c2cc(O)c(O)cc2C)c1 [Compound 20, altenusin]	–	–	–	IC50 ([1]; Mus musculus, RAW264.7, 24 h): 25.4 ± 3.03 µM; CC50 at 24 h [2]: > 100 µM
Cc1cc(=O)c2c(C)cc(O)cc2o1 [Compound 21, 2,5-dimethyl-7-hydroxychromone]	1.2	14.9 ± 1.92	17.3 ± 2.2	–
C[C@H]1CC(=O)OC[C@H]1O [Compound 22, walterolactone C]	3.1	14.9 ± 1.92	46.4 ± 1.7	–
CCC(C)[C@]1(O)NC(=O)[C@@H](C)n2c1nc1c(c2=O)C=C(OC)C=CO1 (some centres unmarked) [Oxepinamide A]	–	–	–	Inhibition rate, ear edema [4]: 82%
C=C1CC[C@H]2C(C)(C)[C@@H](O)CC[C@]2(C)[C@H]1CC(=O)[C@]1(O)C=C(CSC[C@H](O)C(=O)OC)C(=O)C1 [alternarin A]	–	–	–	Inhibition of spontaneous synchronous Ca2+ oscillations [5]: effective inhibition
COC1=CC(=O)c2c(O)c3c(c4c2[C@]12CC(=O)C[C@H]2[C@@]1(C[C@H](O)[C@H](O)CO1)O4)C[C@](C)(O)[C@H](O)C3 [anthrininone A]	–	–	–	Inhibition activity against IDO1 [6]: significant inhibition activity
COc1cc([C@H](Cc2ccccc2)NC(C)=O)oc(=O)c1 [pyrophen]	–	–	–	Anti-fungal activity [7]: displayed anti-fungal activity
CC1=C[C@@H](O)[C@H]2C[C@@H](C)C[C@@H](C)[C@@H]2[C@H]1/C=C/C=C/C(=O)O [tanzawaic acid Q]	–	–	–	Effect on LPS-induced iNOS and COX-2 proteins and mRNA expressions [8]: inhibited
Amestolkolides B	–	–	–	IC50 [9]: 1.6 ± 0.1 µM
